Laboratory results as given in patent US20080085338A1, “Pet Food” (priority 2005, published 2008).

Key:
[1] = 28-day feeding study in cats, antioxidant status; type: in vivo; conditions: dry cat food with 227 mg/kg of EGCG, 28 days, compared with control group
Experimental: Periodontopathic conditions are the most common disease in dogs and cats. Especially in cats, prophylaxis is usually limited to professional dental cleaning under anaesthesia. Special diets which reduce plaque and calculus accumulation have been formulated to extend the period of time between professional dental cleanings. The study was conducted to determine the effect of EGCG in a regular dry diet on the oral health of cats. In addition, the in vitro antibacterial activity of the substance and its effect on the antioxidant status of cats were evaluated. The substance under investigation was sprayed on a standard dry cat food. The supplemented diet contained 227 mg/kg of EGCG. 18 cats were made available for the feeding study, being assigned either to a control group or a study group, each group containing 9 cats. At the beginning of the trial, which was conducted over a period of 28 days, the oral health status of the cats was examined using various indices and tests, and samples from the oral cavity were obtained for bacteriological analysis. In addition, blood samples were taken to determine the antioxidant status of the animal. The examinations were followed by a coronal cleaning (scaling and polishing) to ensure that the study period began with no plaque or calculus present on tooth surfaces (“clean tooth” model). […]

[2] = system: bacteria taken from the feline oral cavity; assay: in vitro antibacterial activity; type: cell-based
Experimental: Periodontopathic conditions are the most common disease in dogs and cats. Especially in cats, prophylaxis is usually limited to professional dental cleaning under anaesthesia. Special diets which reduce plaque and calculus accumulation have been formulated to extend the period of time between professional dental cleanings. The study was conducted to determine the effect of EGCG in a regular dry diet on the oral health of cats. In addition, the in vitro antibacterial activity of the substance and its effect on the antioxidant status of cats were evaluated. […] With a view to achieving better in vivo results, a change in the dosage, and possibly also a change in the mode of administration, can be considered. Further, the active ingredient can be administered in higher concentration, or in such a way as to prolong the time of its contact with the oral cavity. […] This was investigated as a secondary target variable.

O=C(O[C@@H]1Cc2c(O)cc(O)cc2O[C@@H]1c1cc(O)c(O)c(O)c1)c1cc(O)c(O)c(O)c1 [Epigallocatechingallate]
effect on the antioxidant status of the cats [1]: positive effect on the antioxidant status of the cat
inhibition of growth of bacteria taken from the feline oral cavity [2]: able to inhibit the growth bacteria taken from the feline oral cavity in vitro
